Values after ≈ are worked out from the molar mass of the structure shown.
Key:
[1] = Thermodynamic solubility, shake-flask, 10 mM PBS (0.15 M KCl) pH 7, 25 °C, 1 h, HPLC-UV; conditions: for solubility at 1 h / Solubility (in words) / Classification (GSK guidelines): pH 7, 25 °C; for Classification (GSK guidelines): solubility class
Description: Its measurement only requires an initial DMSO stock solution which is precipitated by the addition of an aqueous phase.[23],[24] Here, we measured thermodynamic solubility, often determined in late lead optimization, which efficiently considers the solubility value when the equilibrium with the stable phase or polymorph has been reached.
Solubility was determined in 10 mM PBS (0.15 M KCl) at pH 7, 25 °C. A 1–2 mg sample of each molecule was added to the same quantity (1–2 mL) of the mentioned buffer to obtain 1 mg/mL solutions in the vial. Samples were then submitted to 25 °C and magnetic stirring (500 rpm) for 1 h. After this period, solutions or suspensions were filtered through the 0.45 μm membrane pore and diluted with buffer, 10 mM PBS (0.15 M KCl). The amount of dissolved compound in each sample was then quantified, in duplicate, via HPLC using ultraviolet (UV) spectrometric detection.
Variable volumes of pure DMSO (0–100 μL) were added separately to small and defined (1 mg) quantities of each compound to obtain clear solutions. […] Afterward, 5% DMSO 10 mM PBS (0.15 M KCl) was added until the suspensions or precipitations were redissolved, to render clear solutions. As soon as solutions were obtained, they were used as mother solutions for the performance of 5–10 point calibration curves with serial buffer dilutions (1:1; v/v) 5% DMSO 10 mM PBS (0.15 M KCl). Calibration points were then measured via HPLC-UV.
The mobile phase consisted of a solution of acetonitrile (ACN) and 20 mM ammonium acetate buffer (AAB), pH 7, freshly prepared. A 10 μL volume of each sample (volume of injection) was injected at an isocratic 1 mL/min flow rate analyzed at 30 °C (oven temperature). Solubility determination of each compound required a specific HPLC method. Settings are collected in Table S11 (PROTACs) and Table S10 (building blocks).
Injections were performed in duplicate for each molecule’s calibration points. The retention time and area under the curve (AUC in absorbance units) were collected, and the average was calculated. The AUC average (y-axis) was plotted versus theoretical concentration (mg/mL; x-axis) to obtain a calibration curve for each molecule. Correlation equations and coefficients (R^2) were efficiently calculated for each compound (Table S12 for PROTACs and Table S10 for building blocks). Samples were then injected in duplicate, and the AUC averages and standard deviations were calculated. Finally, the absorbance averages were interpolated into the corresponding equations, extracting the final solubility values with their standard deviation, after dilution factor corrections.

[2] = log kw^IAM – clog kw^IAM
Description: Since polarity is a molecular property often related to solubility,[13] experimental descriptors of polarity (Δ log kw^IAM and EPSA) were also determined. Introduced by Grumetto in 2012,[30] Δ log kw^IAM is the difference between the experimental log kw^IAM and the value expected for neutral analytes with a zero value of polar surface area (which depends on the experimental measurement of the n-octanol partition coefficient[31]). EPSA quantifies the polarity of a molecule using a supercritical fluid chromatographic (SFC) method.[32]

[3] = 25 °C, pH 7, aqueous buffer, thermodynamic from solid, Solubility average, thermodynamic, shake-flask, 1 h
[4] = pH 7, aqueous buffer, thermodynamic from solid
[5] = 25 °C, pH 7, aqueous buffer, thermodynamic from solid, Exp.LogS, PROTAC pairs and building blocks
[6] = 25 °C, pH 7, aqueous buffer, thermodynamic from solid, Solubility, Table S-3
[7] = 25 °C, pH 7, aqueous buffer, thermodynamic from solid, Solubility log S, Table S-3
[8] = pH 7, Exp.LogS, PROTAC pairs and building blocks

Compound | solubility at 1 h [1, 3] | Solubility (in words) [1] | solubility thermodynamic at 1 h [1, 4] | Classification (GSK guidelines) [1] | solubility at 1 h [1, 5] | solubility at 1 h [1, 6] | solubility at 1 h [1, 7] | ΔLog kw IAM [2] | solubility at 1 h [1, 8]
Cc1ncsc1-c1ccc(CNC(=O)[C@@H]2C[C@@H](O)CN2C(=O)[C@@H](NC(=O)C2(F)CC2)C(C)(C)C)c(OCCOc2ccc(CN3CCN(c4cc(-c5ccccc5O)nnc4N)CC3)cc2)c1 [ACBI1] | < 0.72 µM | below the quantification limit | < 0.68 µg/mL | Low (< 30 μM) (Low (< 30 μM)) |  |  |  |  | 
Cc1sc2c(c1C)C(c1ccc(Cl)cc1)=N[C@@H](CC(=O)Nc1ccc(OCCOCCOCCOCCNc3cccc4c3C(=O)N(C3CCC(=O)NC3=O)C4=O)cc1)c1nnc(C)n1-2 (stereo partly drawn) [ARV-825] | < 0.32 µM | below the quantification limit | < 0.29 µg/mL | Low (< 30 μM) (Low (< 30 μM)) |  |  |  |  | 
COc1cc(C(=O)NCCOCCOCCOCC(=O)N[C@H](C(=O)N2C[C@H](O)C[C@H]2C(=O)NCc2ccc(-c3scnc3C)cc2)C(C)(C)C)ccc1Nc1ncc(C(F)(F)F)c(Oc2cccc3c2C(=O)CC3)n1 [BI-0319] | 2.63 µM |  | 2.78 µg/mL (≈ 2.62 µM) | Low (< 30 μM) (Low (< 30 μM)) | 2.63 µM |  |  |  | 
COc1cc(C(=O)NCCOCCOCCOCCC(=O)Nc2cccc3c2C(=O)N(C2CCC(=O)NC2=O)C3=O)ccc1Nc1ncc(C(F)(F)F)c(Oc2cccc3c2C(=O)CC3)n1 (stereo not drawn) [BI-3663] | 6.92 µM |  |  | Low (< 30 μM) (Low (< 30 μM)) | 6.92 µM | 10 µg/mL |  |  | 
COc1cc(C(=O)NCCOCCOCCOCC(=O)N[C@H](C(=O)N2C[C@@H](O)C[C@H]2C(=O)NCc2ccc(-c3scnc3C)cc2)C(C)(C)C)ccc1Nc1ncc(C(F)(F)F)c(Oc2cccc3c2C(=O)CC3)n1 [BI-4206] | 0.58 µM |  | 0.606 µg/mL (≈ 0.571 µM) | Low (< 30 μM) (Low (< 30 μM)) | 0.575 µM |  |  |  | 
COc1cc(-c2cn(C)c(=O)c3cc(C(=N)NC4CCS(=O)(=O)CC4)sc23)ccc1OCC(=O)NCCCCNC(=O)COc1cccc2c1C(=O)N(C1CCC(=O)NC1=O)C2=O (stereo not drawn) [BRD9 degrader-1] | 661 µM |  |  | High (> 200 μM) (High (> 200 μM)) |  | 600 µg/mL | 661 µM | high | 
CC(=O)c1c(C)c2cnc(Nc3ccc(N4CCN(CCOCCOCCOCCNC(=O)COc5cccc6c5C(=O)N(C5CCC(=O)NC5=O)C6=O)CC4)cn3)nc2n(C2CCCC2)c1=O (stereo not drawn) [BSJ-03-123] | 17.8 µM |  |  | Low (< 30 μM) (Low (< 30 μM)) |  | 20 µg/mL | 17.8 µM |  | 
Cc1ncsc1-c1ccc(CNC(=O)[C@@H]2C[C@@H](O)CN2C(=O)[C@@H](NC(=O)COCCOCCOCCOCCOCCOCC(=O)N[C@H](C(=O)N2C[C@H](O)C[C@H]2C(=O)NCc2ccc(-c3scnc3C)cc2)C(C)(C)C)C(C)(C)C)cc1 [CM11] | 631 µM |  |  | High (> 200 μM) (High (> 200 μM)) |  | 730 µg/mL | 631 µM | high | 
Cc1ncsc1-c1ccc(CNC(=O)[C@@H]2C[C@@H](O)CN2C(=O)[C@@H](NC(=O)CCCCOCCCCCOCCCCCCNc2cccc3c2C(=O)N(C2CCC(=O)NC2=O)C3=O)C(C)(C)C)cc1 (stereo partly drawn) [CRBN-6-5-5-VHL] | 1.23 µM |  | 1.19 µg/mL (≈ 1.22 µM) | Low (< 30 μM) (Low (< 30 μM)) |  |  | 1.23 µM |  | 
Cc1ncsc1-c1ccc(CNC(=O)[C@@H]2C[C@H](O)CN2C(=O)[C@@H](NC(=O)C2(F)CC2)C(C)(C)C)c(OCCOc2ccc(CN3CCN(c4cc(-c5ccccc5O)nnc4N)CC3)cc2)c1 [CisACBI1] | < 0.87 µM | below the quantification limit | < 0.817 µg/mL | Low (< 30 μM) (Low (< 30 μM)) |  |  | < 0.871 µM |  | 
Cc1ncsc1-c1ccc(CNC(=O)[C@@H]2C[C@H](O)CN2C(=O)[C@@H](NC(=O)COCCOCCOCCNC(=O)C[C@@H]2N=C(c3ccc(Cl)cc3)c3c(sc(C)c3C)-n3c(C)nnc32)C(C)(C)C)cc1 [CisMZ1] | 50.1 µM |  |  | Intermediate (30–200 μM) (Intermediate (30–200 μM)) |  | 50 µg/mL | 50.1 µM |  | 
COc1cc2ncnc(Nc3ccc(F)c(Cl)c3)c2cc1OCCCCCOCCOCCC(=O)N[C@H](C(=O)N1C[C@H](O)C[C@H]1C(=O)NCc1ccc(-c2scnc2C)cc1)C(C)(C)C [Gefitinib-based PROTAC 3] | 1.23 µM |  | 1.14 µg/mL (≈ 1.22 µM) | Low (< 30 μM) (Low (< 30 μM)) |  |  | 1.23 µM |  | 
O=C1CCC(N2Cc3c(C#CCCCNC(=O)c4ccc(NC(=O)[C@@H]5NC6(CCCCC6)[C@@]6(C(=O)Nc7cc(Cl)ccc76)[C@H]5c5cccc(Cl)c5F)cc4)cccc3C2=O)C(=O)N1 (stereo partly drawn) [MD-224] | < 0.23 µM | below the quantification limit | < 0.289 µg/mL | Low (< 30 μM) (Low (< 30 μM)) |  |  | < 0.229 µM |  | 
Cc1ncsc1-c1ccc(CNC(=O)[C@@H]2C[C@@H](O)CN2C(=O)[C@@H](NC(=O)COCCOCCOCCNC(=O)C[C@@H]2N=C(c3ccc(Cl)cc3)c3c(sc(C)c3C)-n3c(C)nnc32)C(C)(C)C)cc1 [MZ1] | 38 µM |  |  | Intermediate (30–200 μM) (Intermediate (30–200 μM)) | 38 µM | 40 µg/mL |  |  | 
CC(=O)N1c2ccc(-c3ccc(C(=O)NCCOCCOCCOCC(=O)N[C@H](C(=O)N4C[C@H](O)C[C@H]4C(=O)NCc4ccc(-c5scnc5C)cc4)C(C)(C)C)cc3)cc2[C@H](Nc2ccc(Cl)cc2)C[C@@H]1C [MZP-54] | 0.51 µM |  | 0.528 µg/mL (≈ 0.509 µM) | Low (< 30 μM) (Low (< 30 μM)) | 0.513 µM |  |  |  | 
O=C(CCCCC(=O)NCCN1C(=O)c2cccc3c(Sc4ccc(Br)cc4)ccc(c23)C1=O)NCCCCCCNc1cccc2c1C(=O)N(C1CCC(=O)NC1=O)C2=O (stereo not drawn) [Mcl1 degrader-1] | < 0.87 µM | below the quantification limit | < 0.793 µg/mL | Low (< 30 μM) (Low (< 30 μM)) |  |  | < 0.871 µM |  | 
CC(C)(C)c1cnc(CSc2cnc(NC(=O)C3CCN(CC(=O)NCCOCCOCCOCCNc4cccc5c4C(=O)N(C4CCC(=O)NC4=O)C5=O)CC3)s2)o1 (stereo not drawn) [THAL-SNS-032] | 52.5 µM |  |  | Intermediate (30–200 μM) (Intermediate (30–200 μM)) |  | 50 µg/mL | 52.5 µM |  | 
COc1cc(-c2cn(C)c(=O)c3cnccc23)cc(OC)c1CN1CCN(CCCCCOc2cc(-c3scnc3C)ccc2CNC(=O)[C@@H]2C[C@@H](O)CN2C(=O)[C@@H](NC(=O)C2(F)CC2)C(C)(C)C)CC1 [VZ185] | 50.1 µM |  |  | Intermediate (30–200 μM) (Intermediate (30–200 μM)) |  | 50 µg/mL | 50.1 µM |  | 
COC(=O)C[C@@H]1N=C(c2ccc(Cl)cc2)c2c(sc(C(=O)NCCCCCNc3cccc4c3C(=O)N(C3CCC(=O)NC3=O)C4=O)c2C)-n2c(C)nnc21 (stereo partly drawn) [ZXH-3-26] | 2.95 µM |  |  | Low (< 30 μM) (Low (< 30 μM)) |  |  |  |  | 2.95 µM
Cc1sc2c(c1C)C(c1ccc(Cl)cc1)=N[C@@H](CC(=O)NCCNc1cccc3c1C(=O)N(C1CCC(=O)NC1=O)C3=O)c1nnc(C)n1-2 (stereo partly drawn) [dBET57] | 30.2 µM |  |  | Intermediate (30–200 μM) (Intermediate (30–200 μM)) |  | 20 µg/mL |  |  | 30.2 µM

— article PMC9574862, “Designing Soluble PROTACs: Strategies and Preliminary Guidelines” (Journal of Medicinal Chemistry, 2022)
